US5681829A, “Class of phosphocholine derivatives having antifungal activity” (Shaman Pharmaceuticals, Inc., priority 1995, dated 1997)
In brackets after ≈: the same amount, converted by molar mass. Like-named read-outs stand apart in the source and are kept apart here.

What was measured:
Format in all cases: cell-based
[1] = test system: fungi; experiment: antifungal activity stated in words
[2] = test system: C. albicans; experiment: antifungal screening test of analogs, C. albicans (CA); settings: for IC (25-75%): read-out: Partial inhibition
Procedure: (§1) The analog compounds were tested for their activity against C. albicans, C. neoformans, A. fumigatus and T. rubrum. Partial inhibition of the fungus of between 25 to 75% was measured along with the total inhibition (MIC) by these anolog compounds. A description of the partial inhibition measurement can be found in R. L. Stiller, et al The Journal of Infectious Diseases, 147, No. 6 (1983). The structure of these analog compounds is as follows. [drawing 15] wherein R is the group identified in table 2.

[3] = test system: C. neoformans; experiment: antifungal screening test of analogs, C. neoformans (CN); settings: for IC (25-75%): read-out: Partial inhibition
Procedure: as §1

[4] = test system: A. fumigatus; experiment: antifungal screening test of analogs, A. fumigatus (AF); settings: for IC (25-75%): read-out: Partial inhibition
Procedure: as §1

[5] = test system: T. rubrum; experiment: antifungal screening test of analogs, T. rubrum (TR); settings: for IC (25-75%): read-out: Partial inhibition
Procedure: as §1

Row | Molecule | MIC ([2]; Candida albicans) [µg/mL] | MIC ([3]; Cryptococcus neoformans) [µg/mL] | MIC ([4]; Aspergillus fumigatus) [µg/mL] | IC (25-75%) ([4]; Aspergillus fumigatus) [µg/mL] | MIC ([5]; Trichophyton rubrum) [µg/mL] | IC (25-75%) ([3]; Cryptococcus neoformans) [µg/mL] | IC (25-75%) ([5]; Trichophyton rubrum) [µg/mL] | further results
1 | CCCCCCCCCCCCCCCC(=O)O[C@H](COC1O[C@H](CO)[C@@H](O)[C@H](O)[C@H]1O)COP(=O)([O-])OCC[N+](C)(C)C (some centres unmarked) [2-palmitoyl-1-O-glucopyranosyllysolecithin] | – | – | – | – | – | – | – | antifungal activity [1]: relatively active antifungal agent similar in activity to L-a-Lysophosphatidyl inositol
2 | CCCCCCCC/C=C\CCCCCCCC(=O)OC[C@@H](O)COP(=O)([O-])OCC[N+](C)(C)C [L-a-Lysophosphatidylcholine Oleoyl (C18:1,[Cis]-9)] | 31 (≈ 59.4 µM) | 31 (≈ 59.4 µM) | 63 (≈ 121 µM) | 31 | 31 (≈ 59.4 µM) | – | – | –
3 | CCCCCCCC/C=C\CCCCCCCC(=O)OC[C@@H](O)COP(=O)(O)OCCN [L-a-Lysophosphatidylethanol Amine, Oleoyl (C18:1,[cis]-9)] | > 100 | > 100 | > 100 | > 100 | > 100 | 100 | > 100 | IC (25-75%) ([2]; Candida albicans): > 100 µg/mL
4 | CCCCCCCCCCCCCCCC(=O)OC[C@@H](O)COP(=O)([O-])OCC[N+](C)(C)C [L-a-Lysophosphatidylcholine Palmitoyl (C16:0)] | 31 (≈ 62.5 µM) | 31 (≈ 62.5 µM) | 63 (≈ 127 µM) | 31 | 500 (≈ 1010 µM) | – | 63 | –
5 | C[N+](C)(C)CCOP(=O)([O-])OCCCCCCCCCCCCCCCCCCCCCCOP(=O)([O-])OCC[N+](C)(C)C [1,22-docosandiol bisphosphocholine ester] | – | – | – | – | – | – | – | antifungal activity [1]: one of the most active antifungal compounds
6 | CCCCCCCCCCCC(=O)OC[C@@H](O)COP(=O)([O-])OCC[N+](C)(C)C [L-a-Lysophosphatidylcholine Lauroyl (C12:0)] | 500 (≈ 1140 µM) | 125 (≈ 284 µM) | 125 (≈ 284 µM) | – | 250 (≈ 569 µM) | 31 | 63 | –
7 | L-a-Lysophosphatidyl inositol | – | – | – | – | – | – | – | Partial inhibition ([2]; CA, partial inhibition of between 25 to 75%): > 100 µg/mL; MIC ([2]; CA, total inhibition): > 100 µg/mL; Partial inhibition ([3]; CN, partial inhibition of between 25 to 75%): 100 µg/mL; MIC ([3]; CN, total inhibition): > 100 µg/mL; MIC ([4]; AF, total inhibition): 100 µg/mL; Partial inhibition ([5]; TR, partial inhibition of between 25 to 75%): > 100 µg/mL; MIC ([5]; TR, total inhibition): > 100 µg/mL
8 | CCCCCCCCCC(=O)OC[C@@H](O)COP(=O)([O-])OCC[N+](C)(C)C [L-a-Lysophosphatidylcholine Decanoyl (C:10)] | > 500 | 500 (≈ 1220 µM) | > 500 | > 500 | > 500 | 250 | > 500 | IC (25-75%) ([2]; Candida albicans): 250 µg/mL
9 | CCCCCCCCCCCCCC(=O)OC[C@@H](O)COP(=O)([O-])OCC[N+](C)(C)C [L-a-Lysophosphatidylcholine Myristoyl (C14:0)] | 31 (≈ 66.3 µM) | 31 (≈ 66.3 µM) | 125 (≈ 267 µM) | 31 | 31 (≈ 66.3 µM) | – | – | –
10 | CCCCCCCCCCCCCCCCCC(=O)OC[C@@H](O)COP(=O)([O-])OCC[N+](C)(C)C [L-a-Lysophosphatidylcholine Stearoyl (C18:0)] | > 250 | > 250 | > 250 | > 250 | > 250 | 31 | > 250 | IC (25-75%) ([2]; Candida albicans): > 250 µg/mL
11 | CCCCCCCCCCCCCCCCC(=O)OC[C@@H](O)COP(=O)([O-])OCC[N+](C)(C)C [L-a-Lysophosphatidylcholine Heptadecanoyl (C17:0)] | – | – | – | – | – | – | – | IC (25-75%) ([2]; Candida albicans, CA, partial inhibition of between 25 to 75%): 16 µg/mL; MIC ([2]; Candida albicans, CA, total inhibition, read-out: MIC): 63 µg/mL (≈ 124 µM); MIC ([3]; Cryptococcus neoformans, CN, total inhibition, read-out: MIC): 16 µg/mL (≈ 31.4 µM); IC (25-75%) ([4]; Aspergillus fumigatus, AF, partial inhibition of between 25 to 75%): 31 µg/mL; MIC ([4]; Aspergillus fumigatus, AF, total inhibition, read-out: MIC): > 1000 µg/mL; IC (25-75%) ([5]; Trichophyton rubrum, TR, partial inhibition of between 25 to 75%): 31 µg/mL; MIC ([5]; Trichophyton rubrum, TR, total inhibition, read-out: MIC): 63 µg/mL (≈ 124 µM)
